# Experimental data as given in patent US20240408170A1, “COMPOSITION FOR DECOMPOSITION OF TRYPSIN OR TMPRSS2” (Riken, priority 2021, published 2024).
# Assays:
# IgA heavy chain [1] = assay: Western blot of faeces of GF mice inoculated with P. clara strain together with 2-mix; format: in vivo, mouse; conditions: compared to Δ00502 or Δ00509
# Protocol: (§1) Mouse faecal samples were suspended and diluted 50-fold with phosphate buffered saline (PBS) to which a protease inhibitor cocktail (Roche) was added. Subsequently, the suspended sample was centrifuged at 15,000×g for 10 minutes at 4° C., and the supernatant was subjected to western blot. Mouse pancreatic tissue was rapidly frozen in liquid nitrogen. Proteins were extracted by TRIzol Reagent (Thermo Fisher Scientific K.K.), and the final protein concentration was adjusted to 4 μg/μL. For SDS-PAGE and blotting, Novex (registered trademark) NuPAGE (registered trademark) SDS-PAGE Gel system (Thermo Fisher Scientific K.K.) and iBlot™ 2 Dry Blotting System (Thermo Fisher Scientific K.K.) were used according to the manufacturer's instructions.
# (§2) The antibodies used are as follows. […]
# TMPRSS2 = biological target: T1, TMPRSS2 (Mus musculus, UniProt Q9JIQ8); assay: as above; format: in vivo
# T1 construct: from tissue; host or cells: faeces of gnotobiotic mice
# Protocol: as §1, §2
# trypsin (PRSS2) = biological target: T2, trypsin (PRSS2) (Mus musculus, UniProt P07146); assay: Ex vivo incubation of mouse faeces at 37° C. for 48 hours, western blot; conditions: faeces of GF mice inoculated together with 2-mix, 37° C. 48 hours
# T2 construct: the anionic trypsin protease was abundantly present in the cecal contents and the faeces; from tissue; host or cells: faeces and cecal contents of germ-free / gnotobiotic mice
# T2 sequence (P07146 24-246): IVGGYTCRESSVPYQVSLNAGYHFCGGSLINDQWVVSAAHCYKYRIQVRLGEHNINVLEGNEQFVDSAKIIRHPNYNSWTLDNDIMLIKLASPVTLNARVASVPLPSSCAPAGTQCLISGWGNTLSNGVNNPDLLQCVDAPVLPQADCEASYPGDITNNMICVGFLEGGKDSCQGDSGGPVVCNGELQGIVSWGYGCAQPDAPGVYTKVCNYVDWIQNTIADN
# Protocol: (§3) Mouse faecal samples were suspended and diluted 50-fold with phosphate buffered saline (PBS) to which a protease inhibitor cocktail (Roche) was added. Subsequently, the suspended sample was centrifuged at 15,000×g for 10 minutes at 4° C., and the supernatant was subjected to western blot. Mouse pancreatic tissue was rapidly frozen in liquid nitrogen. Proteins were extracted by TRIzol Reagent (Thermo Fisher Scientific K.K.), and the final protein concentration was adjusted to 4 μg/μL. For SDS-PAGE and blotting, Novex (registered trademark) NuPAGE (registered trademark) SDS-PAGE Gel system (Thermo Fisher Scientific K.K.) and iBlotTM 2 Dry Blotting System (Thermo Fisher Scientific K.K.) were used according to the manufacturer's instructions. The antibodies used are as follows. A rabbit anti-mouse PRSS2 antibody (Cosmo Bio Co., Ltd.), a rabbit anti-mouse HSP90 antibody (#4877, Cell Signaling Technology, Inc.), a rabbit anti-human PRSS2 antibody (LS-B15726, LSBio), a rabbit anti-human PRSS1 antibody (LS-331381, LSBio), a rabbit anti-mouse TMPRSS2 antibody (LS-C373022, LSBio, against the sequence of the protease domain), a rabbit anti-6-His antibody ([…]-[…], Bethyl Laboratories, Inc.), a goat anti-mouse IgA a chain antibody (HRP) (ab97235, Abcam plc.), a rat anti-mouse κ chain antibody (HRP) (ab99632, Abcam plc.), a rabbit anti-mouse CELA3b antibody (OACD03205, Aviva Systems Biology Corporation), an anti-rabbit IgG antibody (HRP) (#7074, Cell Signaling Technology, Inc.), and a rabbit anti-mouse Reg3 antibody (51153-[…], Sino Biological, Inc.).
# IgA heavy chain [2] = assay: as above; conditions: faeces of GF mice inoculated together with 2-mix, 37° C. 48 hours
# Protocol: as §3
# T1 sequence (Q9JIQ8 254-490 limits assumed): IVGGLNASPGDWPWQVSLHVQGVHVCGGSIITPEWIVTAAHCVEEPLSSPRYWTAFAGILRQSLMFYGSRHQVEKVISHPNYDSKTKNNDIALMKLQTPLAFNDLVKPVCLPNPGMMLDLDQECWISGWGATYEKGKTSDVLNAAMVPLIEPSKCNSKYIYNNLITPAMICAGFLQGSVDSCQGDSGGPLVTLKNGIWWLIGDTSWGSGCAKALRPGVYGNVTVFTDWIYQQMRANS
substance,measurement,setting,value
Paraprevotella clara [JCM 14859],IgA heavy chain in the faeces,IgA heavy chain [1],larger amount
same,amount of TMPRSS2 in the faeces,TMPRSS2,reduced
same,trypsin in faeces,trypsin (PRSS2),reduced
same,IgA heavy chain in faeces,IgA heavy chain [2],remained
